From patent US20240166680A1, “NUCLEOSIDE ANALOG AND USE THEREOF” (SHANGHAI INSTITUTE OF MATERIA MEDICA, CHINESE ACADEMY OF …, priority 2021, published 2024)
Read-outs that look alike come from different tables or passages of the source.

Tests used:
[1] = Cytotoxicity in MDCK cells (no viral infection); type: cell-based; conditions: dog, without viral infection, read-out: H3N2 (MDCK) CC50
Experimental: (§1) Determination of the inhibitory activity of compounds on the replication of respiratory syncytial virus (RSV), human coronavirus OC43, influenza A virus, and Zika virus by Cytopathogenic effect (CPE): the experimental cells were inoculated at a certain cell density to 96 well cell culture plates, and cultured overnight in a 5% CO2, 37° C. incubator. The compounds and viruses were added the next day. Depending on the tested virus, the cells were cultured in an incubator for 3-7 days under 5% CO2, 33° C. or 37° C., until 80-95% of the cells in the virus-infected control wells without compound had pathological changes. Cell viability in each well was then detected with CellTiter-Glo or CCK-8. […] The cytotoxicity test method is the same as the corresponding antiviral test method, but without viral infection.
(§2) The antiviral activity and cytotoxicity of the compound are represented by the inhibition rate (%) of the compound on the virus-induced cellular viral effect and the cell viability (%), respectively. Calculation equations are as follows:
(§3) Cell viability (%)=(reading value of test well−average value of medium control)/(average value of cell control−average value of medium control)×100;
(§4) EC50 and CC50 values were calculated by Prism software, and the inhibition curve fitting method was “log (inhibitor) vs. response—Variable slope”.

[2] = in vitro; conditions: human
[3] = tested on: respiratory syncytial virus (RSV); assay: Inhibition of respiratory syncytial virus replication by CPE in HEp-2; type: cell-based; conditions: human respiratory syncytial virus, HEp-2, read-out: RSV (HEp-2) EC50
[4] = tested on: influenza A virus (H3N2); assay: Inhibition of influenza virus H3N2 replication by CPE in MDCK; type: cell-based; conditions: MDCK cells
[5] = type: in vivo, rat; conditions: SD rats
Experimental: 6 Male SD rats for each compound were divided into 2 groups (gastric administration group and intravenous injection group), 3 rats in each group. The rats were fasted for 12 h before the experiment (the intravenous experiment group was not fasted), had free access to water, and ate uniformly 4 hours after the administration. […] The dosage of C38 was 10 mg/kg for intragastric administration, 2 mg/kg for intravenous injection, and the administration vehicle was DMSO/EtOH/PEG300/0.9% NaCl (5/5/40/50, v/v/v/v). 0.2 mL of blood was collected from the jugular vein at 5 min (intravenous group only), 0.25 h, 0.5 h, 1.0 h, 2.0 h, 4.0 h, 6.0 h, 8.0 h and 24 h after the administration, placed in an EDTA-K2 test tube and centrifuged at 11,000 rpm for 5 minutes, and the plasma was separated, and stored in a −70° C. refrigerator for testing. The operation was under an ice water bath. The concentration of nucleoside metabolites in plasma was determined by LC-MS-MS, and the pharmacokinetic parameters were calculated.

[6] = type: in vivo, rat; conditions: SD rats; remark: listed apart in the source
Experimental: 6 Male SD rats for each compound were divided into 2 groups (gastric administration group and intravenous injection group), 3 rats in each group. The rates were fasted for 12 h before the experiment (the intravenous experiment group was not fasted), had free access to water, and ate uniformly 4 hours after the administration. The dosages of C22 and C23 were 16 mg/kg and 20 mg/kg for intragastric administration, respectively, and the administration vehicle was 5% DMSO+5% solutol+90% saline. The intravenous injection dosages were 4 mg/kg and 5 mg/kg respectively, and the administration vehicle was DMSO/EtOH/PEG300/0.9% NaCl (5/5/40/50, v/v/v/v). 0.2 mL of blood was collected from the jugular vein 5 min, 0.25 h, 0.5 h, 1.0 h, 2.0 h, 4.0 h, 6.0 h, 8.0 h and 24 h after the administration, placed in an EDTA-K2 test tube abd centrifuged at 11,000 rpm for 5 minutes, and the plasma was separated, and stored in a −70° C. refrigerator for testing. The operation was under an ice water bath. The concentration of nucleoside metabolites in plasma was determined by LC-MS-MS, and the pharmacokinetic parameters were calculated.

[7] = Cytotoxicity in Vero cells (SARS-CoV-2 test); type: cell-based; conditions: African green monkey
[8] = in monkeys; cited from earlier work
[9] = tested on: porcine epidemic diarrhea virus (PEDV); assay: Inhibition of PEDV replication in Vero cells by fluorescent quantitative PCR; conditions: 36 h, read-out: PEDV (Vero) EC50
[10] = Cytotoxicity in Huh7 cells (no viral infection); type: cell-based; conditions: human, without viral infection, read-out: HCoV OC43 (Huh7) CC50
Experimental: as §1, §2, §3, §4

[11] = tested on: 2019 novel coronavirus (SARS-CoV-2); assay: Inhibition of SARS-CoV-2 replication in Vero cells (qRT-PCR); type: cell-based; conditions: Severe acute respiratory syndrome coronavirus 2, 48 hours, virus copy number in supernatant by qRT-PCR
[12] = tested on: Zika virus; assay: Inhibition of Zika virus replication by CPE in Huh7; type: cell-based; conditions: Huh-7, read-out: Zika (Huh7) EC50
[13] = nucleoside metabolite in plasma, iv 2 mg/kg
[14] = nucleoside metabolite in plasma, po 10 mg/kg
[15] = nucleoside metabolite in plasma, iv 5 mg/kg
[16] = nucleoside metabolite in plasma, po 20 mg/kg

CC(C)C(=O)OC[C@@]1(F)O[C@@H](n2ccc(=O)[nH]c2=O)[C@@H]2OC(=O)O[C@@H]21 [Compound B2] gave a CC50 [1] of over 10 µM, a CC50 [2] of over 10 µM and an EC50 [3] of over 10 µM. The EC50 [4] was over 10 µM.

With [2H]c1cc([C@]2(C#N)O[C@H](CO)[C@H]3OC(CC)O[C@H]32)n2ncnc(N)c12 (some centres unmarked) [Compound C38] the “AUC(0-t)” value [5, 13] was 551 ng·h/mL, the “AUC(0-∞)” value [5, 13] was 586 ng·h/mL and the Cmax [5, 13] was 217 ng/mL. For the same compound, the T1/2 [5, 13] was 1.9 h, the “AUC(0-t)” value [5, 14] was 2388 ng·h/mL and the “AUC(0-∞)” value [5, 14] was 2454 ng·h/mL. It also gave a Cmax [5, 14] of 586 ng/mL, a T1/2 [5, 14] of 3.1 h and a Tmax [5, 14] of 0.75 h. For the same compound, the “F % (bioavailability)” value ([5]; nucleoside metabolite, po 10 mg/kg vs iv 2 mg/kg) was 87%.

Compound CC(C)C(=O)OC[C@H]1O[C@@H](n2ccc(NO)nc2=O)[C@@H]2OC(=O)O[C@@H]21 [Compound A2] has a CC50 [1] of over 10 µM and an EC50 [4] of over 10 µM.

With [2H]c1cc([C@]2(C#N)O[C@H](COC(=O)C(C)C)[C@H]3OC(=O)O[C@H]32)n2ncnc(N)c12 [Compound C23] the “AUC(0-t)” value [6, 15] was 3954 ng·h/mL, the “AUC(0-∞)” value [6, 15] was 4024 ng·h/mL and the Cmax [6, 15] was 3903 ng/mL. The T1/2 [6, 15] was 5.24 h, the “AUC(0-t)” value [6, 16] was 11360 ng·h/mL and the “AUC(0-∞)” value [6, 16] was 11393 ng·h/mL. The Cmax [6, 16] was 2933 ng/mL, the T1/2 [6, 16] was 3.47 h and the Tmax [6, 16] was 1.0 h. The “F % (bioavailability)” value ([6]; nucleoside metabolite, po 20 mg/kg vs iv 5 mg/kg) was 71.8%.

With CC(C)[C@H](N)C(=O)OC[C@@]1(F)O[C@@H](n2ccc(=O)[nH]c2=O)[C@@H]2OC(=O)O[C@@H]21 [Compound B6] the CC50 [1] was over 10 µM, the CC50 [2] was over 10 µM and the EC50 [3] was 3.46 µM. It also gave an EC50 [4] of under 0.5 µM.

In the case of CCCCCCCCCCCCCCCC(=O)OC[C@@]1(F)O[C@@H](n2ccc(=O)[nH]c2=O)[C@@H]2OC(=O)O[C@@H]21 [Compound B41], the CC50 [1] is reported as over 10 µM, the CC50 [2] is reported as over 10 µM and the EC50 [3] is reported as 0.46 µM. For the same compound, the EC50 [4] was under 0.5 µM.

For N#C[C@@]1(c2ccc3c(N)ncnn23)O[C@H](CO)[C@@H](O)[C@H]1O [GS-441524, (2R,3R,4S,5R)-2-(4-aminopyrrolo[2,1-F][1,2,4]triazin-7-yl)-3,4-dihydroxy-5-(hydroxymethyl)tetrahydrofuran-2-carbonitrile], the CC50 [7] is given as over 10 µM, the oral bioavailability [8] is given as “less than 10%” and the EC50 [9] is given as 0.31 µM. The CC50 [10] was over 10 µM, the EC50 [11] was 0.47 µM and the CC50 [2] was over 10 µM. It also gave an EC50 [3] of 0.73 µM and an EC50 [12] of 15 µM.

N#C[C@@]1(c2ccc3c(N)ncnn23)O[C@H](CO)[C@H]2OC(=O)O[C@H]21 [Compound C21] gave a CC50 [2] of over 10 µM and an EC50 [3] of 0.49 µM.
